The results in this text go back to patent US7687526B2, “Benzo-fused compounds for use in treating metabolic disorders” (Amgen Inc., priority 2006, dated 2010).

For one test, the target named is T1, human GPR40 (Homo sapiens, UniProt O14842).
T1 construct: expressed in transfected cells; host or cells: CHO cells
T1 sequence (O14842 whole entry): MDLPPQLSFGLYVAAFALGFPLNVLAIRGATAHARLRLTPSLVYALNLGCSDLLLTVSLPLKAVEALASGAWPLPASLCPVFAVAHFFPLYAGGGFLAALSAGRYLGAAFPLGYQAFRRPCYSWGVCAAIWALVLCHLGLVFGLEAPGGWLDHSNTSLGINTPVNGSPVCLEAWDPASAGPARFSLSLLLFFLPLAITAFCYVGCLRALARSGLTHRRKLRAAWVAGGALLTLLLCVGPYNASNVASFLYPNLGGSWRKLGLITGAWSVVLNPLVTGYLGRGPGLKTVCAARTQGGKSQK
The test is described as follows: Cell-based aequorin assay using human GPR40. Conditions: CHO cells stably transfected with GPR40 and Aequorin; 0.01% HSA; aequorin luminescence; read-out: Relative EC50. The method, then:
Cell-based aequorin assays were employed to characterize the modulatory activity of compounds on the GPR40 signaling pathway. In an exemplary assay, CHO cells were stably transfected with both GPR40 and Aequorin (Euroscreen). Cells were detached from the tissue culture dish with 2 mL of trypsin (0.25% (w/v)). Trypsinization was halted with 28 mL of Hanks Buffered Salt Solution containing 20 mM Hepes (H/HBSS) and 0.01% fatty acid-free human serum albumin (HSA). Coelantrazine is added to 1 ug/mL, and the cells were incubated for 2 hours at room temperature. Compounds were dissolved in DMSO for preparation of 10 mM stock solutions. Compounds were diluted in H/HBSS containing 0.01% HSA. Serial dilutions of the test compounds were prepared to determine dose response.
Aequorin luminescence measurements were made using an EG&G Berthold 96-well luminometer, and the response was measured over a 20 second interval after cells and compounds were mixed. The maximum relative light units was plotted to determine dose response. The EC50 (effective concentration to reach 50% maximal response) was determined from the dose response plot.
Table 1 presents representative data (EC50 values) obtained for exemplary compounds of the invention for the relative activation of human GPR40. […]
By EC50 is commonly meant the midpoint of the concentration-response curve. With `CC#CC(CC(=O)O)c1ccc(OCc2ccc3c(c2)C[C@@H](c2ccc(Cl)cc2)O3)cc1` (single isomer, unassigned) [Example 76], the EC50 lay in the range of 0.01 to 0.1 µM.
For `CC#CC(CC(=O)O)c1ccc(OCc2ccc3c(c2)C[C@H](c2ccc(Cl)cc2)O3)cc1` (single isomer, unassigned) [Example 77], the EC50 lay within 0.01 to 0.1 µM.
For the compound `CC1(C)CCC(C)(C)c2cc(COc3ccc([C@H](CC(=O)O)c4ncco4)cc3)ccc21` [Example 12, (S)-3-Oxazol-2-yl-3-[4-(5,5,8,8-tetramethyl-5,6,7,8-tetrahydro-naphthalen-2-ylmethoxy)-phenyl]-propionic acid], the EC50 lay within 0.1 to 1 µM.
As to `CC#C[C@@H](CC(=O)O)c1ccc(OCc2ccc3c(c2)C(C)(C)CCC3(C)C)cc1` [Example 19, (S)-3-(4-((5,5,8,8-Tetramethyl-5,6,7,8-tetrahydronaphthalen-2-yl)methoxy)phenyl)hex-4-ynoic acid], the EC50 is 1 to 10 µM.
Still for that read-out and setting: the figure for `CC#C[C@H](CC(=O)O)c1ccc(OCc2ccc3c(c2)C(C)(C)CCC3(C)C)cc1` [Example 20, (R)-3-(4-((5,5,8,8-Tetramethyl-5,6,7,8-tetrahydronaphthalen-2-yl)methoxy)phenyl)hex-4-ynoic acid] is 1 to 10 µM.
On to `CCC1(CC)CCC(C)(C)c2ccc(COc3ccc([C@H](CC(=O)O)c4ccon4)cc3)cc21` [Example 72, (S)-3-(4-((8,8-diethyl-5,5-dimethyl-5,6,7,8-tetrahydronaphthalen-2-yl)methoxy)phenyl)-3-(isoxazol-3-yl)propanoic acid], for which the EC50 was in the range of 0.01 to 0.1 µM.
As for `CCC1(CC)CCC(C)(C)c2ccc(COc3ccc([C@H](CC(=O)O)c4nnnn4C)cc3)cc21` [Example 73, (S)-3-(4-((8,8-diethyl-5,5-dimethyl-5,6,7,8-tetrahydronaphthalen-2-yl)methoxy)phenyl)-3-(1-methyl-1H-tetrazol-5-yl)propanoic acid], the EC50 fell in the range of 0.01 to 1 µM.
For the compound `CC1(C)CCC(C)(C)c2cc(COc3ccc([C@H](CC(=O)O)C4=NOCC4)cc3)ccc21` [Example 74, 3-(4,5-Dihydroisoxazol-3-yl)-3-(4-((5,5,8,8-tetramethyl-5,6,7,8-tetrahydronaphthalen-2-yl)methoxy)phenyl)propanoic acid], the EC50 lay within 0.01 to 0.1 µM.
With `Cn1ccnc1[C@@H](CC(=O)O)c1ccc(OCc2ccc3c(c2)CCCC3(C)C)cc1` [Example 75, (S)-3-(4-((5,5-dimethyl-5,6,7,8-tetrahydronaphthalen-2-yl)methoxy)phenyl)-3-(1-methyl-1H-imidazol-2-yl)propanoic acid], the EC50 fell in the range of 0.1 to 1 µM.
Same read-out and setting: the figure for `CC/C(C)=C/[C@@H](CC(=O)O)c1ccc(OCc2ccc3c(c2)C(C)(C)CCC3(C)C)cc1` [Example 78, (R,E)-5-Methyl-3-(4-((5,5,8,8-tetramethyl-5,6,7,8-tetrahydronaphthalen-2-yl)methoxy)phenyl)hept-4-enoic acid] is 0.1 to 1 µM; for `CC/C(C)=C/[C@H](CC(=O)O)c1ccc(OCc2ccc3c(c2)C(C)(C)CCC3(C)C)cc1` [Example 79, (S,E)-5-Methyl-3-(4-((5,5,8,8-tetramethyl-5,6,7,8-tetrahydronaphthalen-2-yl)methoxy)phenyl)hept-4-enoic acid] it is 1 to 10 µM; for `Cn1ccnc1[C@@H](CC(=O)O)c1ccc(OCc2ccc3c(c2)C(C)(C)CC3(C)C)cc1` [Example 80, (S)-3-(1-Methyl-1H-imidazol-2-yl)-3-(4-((1,1,3,3-tetramethyl-2,3-dihydro-1H-inden-5-yl)methoxy)phenyl)propanoic acid] it is 0.1 to 1 µM.
With `Cn1ccnc1[C@@H](CC(=O)O)c1ccc(OCc2ccc3c(c2)C(=O)CCC3(C)C)cc1` [Example 81, (S)-3-(4-((5,5-Dimethyl-8-oxo-5,6,7,8-tetrahydronaphthalen-2-yl)methoxy)phenyl)-3-(1-methyl-1H-imidazol-2-yl)propanoic acid], the half-maximal effective concentration (EC50) lay in the range of 1 to 10 µM.
`Cn1ccnc1[C@@H](CC(=O)O)c1ccc(OCc2ccc3c(c2)OC(F)(F)O3)cc1` [Example 82, (S)-3-(4-((2,2-difluorobenzo[d][1,3]dioxol-5-yl)methoxy)phenyl)-3-(1-methyl-1H-imidazol-2-yl)propanoic acid]: the EC50 was 0.1 to 1 µM.
For `CC1(C)CCC(C)(C)c2cc(COc3ccc([C@@H](/C=C/Cc4ccccc4)CC(=O)O)cc3)ccc21` [Example 83, (R,E)-6-Phenyl-3-(4-((5,5,8,8-tetramethyl-5,6,7,8-tetrahydronaphthalen-2-yl)methoxy)phenyl)hex-4-enoic acid], the concentration giving a half-maximal response (EC50) lay in the range of 1 to 10 µM.
On to `CC1(C)CCC(C)(C)c2cc(COc3ccc([C@H](/C=C/Cc4ccccc4)CC(=O)O)cc3)ccc21` [Example 84, (S,E)-6-Phenyl-3-(4-((5,5,8,8-tetramethyl-5,6,7,8-tetrahydronaphthalen-2-yl)methoxy)phenyl)hex-4-enoic acid], for which the EC50 was in the range of 1 to 10 µM.
Same read-out and setting: the figure for `Cn1ccnc1[C@@H](CC(=O)O)c1ccc(OCc2ccc3c(c2)OCCO3)cc1` [Example 86, (S)-3-(4-((2,3-Dihydrobenzo[b][1,4]dioxin-6-yl)methoxy)phenyl)-3-(1-methyl-1H-imidazol-2-yl)propanoic acid] is 1 to 10 µM.

Another test has as its system Human islets. Put plainly: Insulin secretion assay. Type of test: cell-based. Particulars: human islet cells, KRBH with 11.2 mM glucose, insulin measured by SPA; read-out: EC50 of stimulated insulin secretion from islet cells. The protocol:
Human islets were isolated from cadaveric donors. Islets were treated with trypsin (0.25% (w/v) and cells were seeded in 96-well plates containing 3,000 cells per well. Cells were cultured in Roswell Park Memorial Institute (RMPI) media containing 10% fetal bovine serum.
For determination of insulin secretion, media was removed from islet cells and replaced with Krebs-Ringer bicarbonate buffer containing 10 mM HEPES (KRBH) and 2 mM glucose. After one hour incubation, media was replaced with KRBH containing 11.2 mM glucose and test compounds. Insulin released into the medium from the islet cells was measured using scintillation proximity assay (SPA).
For `CC1(C)CCC(C)(C)c2cc(COc3ccc(C(CC(=O)O)c4cncnc4)cc3)ccc21` (racemic) [Example 9, (R/S)-3-Pyrimidin-5-yl-3-[4-(5,5,8,8-tetramethyl-5,6,7,8-tetrahydro-naphthalen-2-ylmethoxy)-phenyl]-propionic acid], the EC50 was below 1 µM.
On the same count and under the same terms, the figure for `Cn1cncc1[C@@H](CC(=O)O)c1ccc(OCc2ccc3c(c2)C(C)(C)CCC3(C)C)cc1` [Example 4, (S)-3-(1-methyl-1H-imidazol-5-yl)-3-(4-((5,5,8,8-tetramethyl-5,6,7,8-tetrahydronaphthalen-2-yl)methoxy)phenyl)propanoic acid] is below 1 µM.
